Data on 15 molecules can be found in ChEMBL document CHEMBL1201862, “PubChem BioAssay data set” (2004).

The structures appear in SMILES notation.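 Five compound concentrations were applied to cells in 96-well plates for 48 hours; endpoints were derived by simple linear interpolation of the resulting dose-response curve. GI50 marks 50% less growth.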 Active and inactive are the calls of the source. Cut-off read from the data, not from the text of the source: active = GI50 up to about 1.1 µM and inactive = higher.

Some test systems named below: CCRF-CEM; SN12C; SNB-19; HCT-15; EKVX; COLO 205; LOX IMVI; SW-620; KM12; HCC 2998; M14; OVCAR-3; A498; UACC-62; CAKI-1.
Test in all cases: NCI-60 cell line screen, 48 h

As to `COC(=O)C(CCC1(C)OCCO1)=[N+]=[N-]`, the GI50 in the experiment with CCRF-CEM is > 100 µM (inactive); in the experiment with SN12C, > 100 µM (inactive); in the experiment with SNB-19, > 100 µM (inactive); in the experiment with HCT-15 it was greater than 100 µM; with EKVX it was > 100 µM (inactive); with COLO 205, > 100 µM (inactive). The GI50 in the experiment with LOX IMVI, in the experiment with SW-620, in the experiment with KM12, in the experiment on HCC 2998, with M14 and with OVCAR-3 was > 100 µM (inactive) throughout. The GI50 in the experiment on A498 was > 100 µM (inactive).

With `COc1ccc(C(O)c2cc(OC)c(OC)c(OC)c2)cc1` (centres undefined), the GI50 with CCRF-CEM was 20 µM (inactive); with SN12C, 42.8 µM (inactive); with SNB-19 it was 42.4 µM (inactive); in the experiment with HCT-15, 8.77 µM; with EKVX, 43.9 µM (inactive); with COLO 205, 8.73 µM (inactive). In addition, the GI50 with LOX IMVI is 17.2 µM (inactive); with UACC-62, 8.91 µM (inactive); in the experiment on SW-620, 6.85 µM (inactive); in the experiment with KM12, 7.52 µM (inactive); in the experiment on M14, 13 µM (inactive); with OVCAR-3, 18.5 µM (inactive). Besides, the GI50 is 37.1 µM (inactive) in the experiment on CAKI-1 and 25.9 µM (inactive) in the experiment with A498.

For `CCOC(=O)C(C)c1cc(C2(C)OCCO2)c(C)o1` (centres undefined), the GI50 is > 100 µM (inactive) in the experiment on CCRF-CEM; > 100 µM (inactive) with SN12C; > 100 µM (inactive) in the experiment on SNB-19; greater than 100 µM in the experiment with HCT-15; > 100 µM (inactive) in the experiment with EKVX; > 100 µM (inactive) with COLO 205. Further, the GI50 with LOX IMVI, in the experiment with UACC-62, in the experiment on SW-620, in the experiment on KM12, with HCC 2998 and in the experiment with M14 was > 100 µM (inactive) each time. Moreover, the GI50 in the experiment with OVCAR-3 is > 100 µM (inactive).

For `Oc1ccc(Br)cc1/C=N/c1ccc(/N=C/c2cc(Br)ccc2O)cc1`, the GI50 in the experiment on CCRF-CEM is > 100 µM (inactive); with SN12C it was > 100 µM (inactive); with SNB-19, > 100 µM (inactive); with HCT-15, greater than 100 µM; in the experiment with EKVX, > 100 µM (inactive); in the experiment with LOX IMVI it was > 100 µM (inactive). The GI50 with SW-620, in the experiment on KM12, in the experiment with HCC 2998, in the experiment with M14, in the experiment on CAKI-1 and in the experiment on A498 was > 100 µM (inactive) in each case.

Turning to `COc1ccccc1C1C(Cl)C(=O)N1NC(=O)Cc1ccccc1` (centres undefined), the GI50 in the experiment with CCRF-CEM is > 100 µM (inactive); with SN12C, > 100 µM (inactive); in the experiment with SNB-19 it was > 100 µM (inactive); with HCT-15, 73.6 µM; with EKVX it was > 100 µM (inactive); with COLO 205, > 100 µM (inactive). In addition, the GI50 in the experiment with LOX IMVI is 50.5 µM (inactive); in the experiment on UACC-62, 83.2 µM (inactive); with SW-620, 52.4 µM (inactive); in the experiment with KM12, > 100 µM (inactive); with HCC 2998 it was 75.7 µM (inactive); in the experiment on M14 it was > 100 µM (inactive). The GI50 in the experiment with OVCAR-3 is > 100 µM (inactive); in the experiment on CAKI-1 it was 82.4 µM (inactive).

Take `CCCCCCCCCC(=O)CC(=O)c1c(O)cccc1O`: the GI50 with CCRF-CEM was 27.4 µM (inactive); in the experiment on SN12C it was 24.4 µM (inactive); with SNB-19, 53.1 µM (inactive); in the experiment on EKVX, 29.2 µM (inactive); in the experiment with COLO 205 it was 18.7 µM (inactive); in the experiment with LOX IMVI, 21.3 µM (inactive). In addition, the GI50 is 33.4 µM (inactive) with UACC-62; 28.8 µM (inactive) in the experiment with SW-620; 35.1 µM (inactive) with KM12; 44.6 µM (inactive) in the experiment with HCC 2998; 22 µM (inactive) with M14; 29.2 µM (inactive) in the experiment with OVCAR-3. Also, the GI50 in the experiment with CAKI-1 was 33.2 µM (inactive).

Consider `COc1nc2c(nc(N)n2C2OC(CO)C(O)C(O)C2O)c(=O)n1C` (centres undefined), for which the GI50 in the experiment with CCRF-CEM, with SN12C, in the experiment on SNB-19, with EKVX, with COLO 205 and with LOX IMVI was > 100 µM (inactive) each time. In addition, the GI50 in the experiment on UACC-62, in the experiment with SW-620, in the experiment on KM12, in the experiment on HCC 2998, in the experiment on M14 and in the experiment with OVCAR-3 was > 100 µM (inactive) throughout. For the same molecule, the GI50 in the experiment on CAKI-1 and in the experiment on A498 was > 100 µM (inactive) in each case.

As for `CCOC(=O)N(c1ccccc1)N(CC)C(=O)/C(C)=N/Nc1ccc([N+](=O)[O-])cc1`, the GI50 in the experiment on CCRF-CEM was 17.2 µM (inactive); in the experiment on SN12C it was 17.3 µM (inactive); in the experiment on SNB-19 it was 16.2 µM (inactive); in the experiment with HCT-15, 16 µM; in the experiment with EKVX, 18.6 µM (inactive); in the experiment on COLO 205 it was 17.2 µM (inactive). The GI50 was 13.6 µM (inactive) in the experiment on UACC-62; 19.3 µM (inactive) in the experiment on SW-620; 15.4 µM (inactive) in the experiment with KM12; 18 µM (inactive) with HCC 2998; 17.9 µM (inactive) in the experiment on M14; 16.2 µM (inactive) with OVCAR-3. Moreover, the GI50 with A498 is 14.3 µM (inactive).

Regarding `CC1=C(/C=C/C(C)=C/C2CC(N(C)C)=CC(=O)O2)C(C)(C)CCC1` (centres undefined), the GI50 with CCRF-CEM is 3.46 µM (inactive); in the experiment on SN12C, 15.5 µM (inactive); in the experiment with SNB-19, 15.2 µM (inactive); in the experiment with EKVX it was 14.4 µM (inactive); in the experiment with COLO 205, 14.1 µM (inactive); in the experiment on LOX IMVI, 15.2 µM (inactive). The GI50 in the experiment with UACC-62 was 13.6 µM (inactive); in the experiment with SW-620, 16.2 µM (inactive); in the experiment with KM12, 15.6 µM (inactive); in the experiment with HCC 2998 it was 13.6 µM (inactive); with M14, 14.8 µM (inactive); in the experiment on OVCAR-3, 11.5 µM (inactive). Moreover, the GI50 with CAKI-1 is 22.2 µM (inactive); in the experiment with A498, 14.9 µM (inactive).

With `c1cc(C2O[C@H]3CCCN3[C@@H]2c2ccncc2)ccn1` (some centres undefined), the GI50 is > 100 µM (inactive) with CCRF-CEM; > 100 µM (inactive) with SN12C; > 100 µM (inactive) in the experiment with SNB-19; greater than 100 µM in the experiment with HCT-15; > 100 µM (inactive) with EKVX; > 100 µM (inactive) in the experiment on COLO 205. Further, the GI50 with LOX IMVI, with UACC-62, in the experiment on SW-620, in the experiment with KM12, with M14 and in the experiment on OVCAR-3 was > 100 µM (inactive) each time. Also, the GI50 in the experiment with CAKI-1 and in the experiment with A498 was > 100 µM (inactive) in each case.

With `C/C(=N\NC(N)=S)c1ccc(/C(C)=N/NC(N)=S)cc1`, the GI50 in the experiment on CCRF-CEM was > 100 µM (inactive); in the experiment with SN12C, > 100 µM (inactive); in the experiment on SNB-19, > 100 µM (inactive); in the experiment with HCT-15, greater than 100 µM; in the experiment on EKVX, > 100 µM (inactive); in the experiment with COLO 205, > 100 µM (inactive). In addition, the GI50 in the experiment on LOX IMVI, in the experiment on UACC-62, in the experiment on SW-620, in the experiment with KM12, with HCC 2998 and in the experiment with M14 was > 100 µM (inactive) throughout. Also, the GI50 in the experiment with OVCAR-3 and with A498 was > 100 µM (inactive) in each case.

Consider `Oc1c(-c2ccccc2)nc2ccccn12`, for which the GI50 in the experiment on CCRF-CEM, with SN12C, with SNB-19, in the experiment on EKVX, in the experiment on UACC-62 and with SW-620 was > 100 µM (inactive) each time. Besides, the GI50 in the experiment with KM12, in the experiment with HCC 2998, in the experiment with M14, in the experiment on OVCAR-3, in the experiment with CAKI-1 and in the experiment on A498 was > 100 µM (inactive) throughout.

Take `CCOC(=O)NC(=O)c1cn(CCCCCCCCCCC(=O)NCCCN2CCN(CCCNC(=O)CCCCCCCCCCn3cc(C(=O)NC(=O)OCC)c(=O)[nH]c3=O)CC2)c(=O)[nH]c1=O`: the GI50 in the experiment with CCRF-CEM was > 100 µM (inactive); in the experiment on SN12C it was > 100 µM (inactive); with SNB-19 it was > 100 µM (inactive); with HCT-15, greater than 100 µM; with COLO 205, > 100 µM (inactive); in the experiment on LOX IMVI, > 100 µM (inactive). For the same molecule, the GI50 was > 100 µM (inactive) in the experiment with UACC-62; > 100 µM (inactive) in the experiment with SW-620; > 100 µM (inactive) in the experiment with KM12; > 100 µM (inactive) in the experiment on HCC 2998; > 10 µM (inactive) with M14; > 10 µM (inactive) with OVCAR-3. For the same molecule, the GI50 in the experiment on CAKI-1 is > 10 µM (inactive); with A498, > 100 µM (inactive).

With `c1ccc(-c2csc3ncn4cnnc4c23)cc1`, the GI50 in the experiment on CCRF-CEM was 85.9 µM (inactive); in the experiment on SN12C it was 81.7 µM (inactive); with SNB-19, > 100 µM (inactive); with HCT-15, 95.3 µM; in the experiment on EKVX, > 100 µM (inactive); in the experiment with COLO 205, > 100 µM (inactive). Further, the GI50 with LOX IMVI is 55.8 µM (inactive); in the experiment with UACC-62, 53.3 µM (inactive); in the experiment on SW-620, > 100 µM (inactive); with KM12, > 100 µM (inactive); with HCC 2998, > 100 µM (inactive); in the experiment with M14, > 100 µM (inactive). In addition, the GI50 with OVCAR-3 was > 100 µM (inactive).

For the molecule `CCCCCCCCCCCCOC(=S)NCCCC`, the GI50 in the experiment with CCRF-CEM was 27.5 µM (inactive); with SN12C it was 19.9 µM (inactive); in the experiment on SNB-19 it was 37.4 µM (inactive); with HCT-15, 19.5 µM; in the experiment with EKVX, 18.3 µM (inactive); in the experiment with LOX IMVI, 17 µM (inactive). Further, the GI50 in the experiment with UACC-62 is 16.7 µM (inactive); in the experiment on SW-620 it was 17.7 µM (inactive); in the experiment on KM12 it was 20 µM (inactive); with HCC 2998, 18 µM (inactive); with M14, 27.8 µM (inactive); in the experiment on A498, 20 µM (inactive).
